From article PMC6648700 (Molecular pharmaceutics, 2018)

Assays:
[1] = test system: Nocardia asteroides (clinical isolate); assay: Cell viability IC50 screen; conditions: read-out: IC50 without a β-lactam, Nast
[2] = biological target: PknB 1–331 (Mycobacterium tuberculosis, UniProt P9WI81); format: biochemical; conditions: at concentrations tested
[3] = test system: Mycobacterium smegmatis MC^2155 WT; assay: Cell viability IC50 screen; conditions: for potentiation of IPA by isoniazid, Msmeg: isoniazid at four times less than the lethal concentration; for potentiation with a sub-MIC50 dose of meropenem to inhibit Msmeg growth: meropenem 1.25μg/mL
[4] = test system: Mycobacterium tuberculosis H37Rv ΔRD1 ΔpanCD strain mc^26030; format: cell-based; conditions: for activity against Mtb alone: auxotrophic Mtb H37Rv; for activity against Mtb with sub-MIC50 dose of meropenem: meropenem 1μg/mL with clavulonic acid
[5] = in vivo; cited from earlier work
[6] = test system: M. marinum; assay: Growth inhibition and β-lactam potentiation, M. marinum; format: cell-based, Mycobacterium marinum
[7] = test system: Mycobacterium chelonae (clinical isolate); assay: MIC shift, M. chelonae
[8] = test system: Mycobacterium abscessus PM3386 Δbla; format: cell-based; conditions: GSK690693 50 μM

Chain of PknB 1–331 (P9WI81 1-331): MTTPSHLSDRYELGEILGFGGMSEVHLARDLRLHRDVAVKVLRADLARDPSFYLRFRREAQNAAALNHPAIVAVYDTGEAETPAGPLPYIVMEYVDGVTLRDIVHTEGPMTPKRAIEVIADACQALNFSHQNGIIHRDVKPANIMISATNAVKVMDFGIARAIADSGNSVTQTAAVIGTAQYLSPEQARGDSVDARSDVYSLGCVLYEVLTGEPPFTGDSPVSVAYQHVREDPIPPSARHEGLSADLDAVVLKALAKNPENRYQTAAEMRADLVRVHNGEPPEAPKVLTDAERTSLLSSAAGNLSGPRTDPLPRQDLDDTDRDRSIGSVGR

CCn1c(-c2nonc2N)nc2c(C#CC(C)(C)O)ncc(OCC3CCNCC3)c21 [GSK554170A]
IC50 [1]: 24 to 100 µM

CCn1c(-c2nonc2N)nc2cncc(CNC3CCNCC3)c21 [SB-747651A]
PknB inhibitory activity [2]: no inhibitory activity

CCn1c(-c2nonc2N)nc2c(C#CC(C)(C)O)nc(O[C@@H](CN)c3ccccc3)cc21 [GSK1007102B]
potentiation of IPA by isoniazid, Msmeg [3]: did not potentiate | potentiation with a sub-MIC50 dose of meropenem to inhibit Msmeg growth [3]: the most potent | activity against Mtb alone [4]: able to attenuate the growth | activity against Mtb with sub-MIC50 dose of meropenem [4]: activity was shifted | IC50 [1]: 24 to 100 µM

CCn1c(-c2nonc2N)nc2c(C#CC(C)(C)O)ncc(OC[C@H]3CCCNC3)c21 [GSK690693, 4-(2-(4-amino-1,2,5-oxadiazol-3-yl)-1-ethyl-7-{[(3S)-3-piperidinylmethyl]oxy}−1H-imidazo[4,5-c]pyridin-4-yl)-2-methyl-3-butyn-2-ol]
side-effects in phase I clinical trials [5]: only moderate side-effects | potentiation of IPA by isoniazid, Msmeg [3]: did not potentiate | potentiation with a sub-MIC50 dose of meropenem to inhibit Msmeg growth [3]: able to potentiate | potentiation of β-lactams, M. marinum ([6]; Fig. S7C): does not potentiate | activity alone, M. marinum growth ([6]; Fig. S7D): effective on its own | potentiation of meropenem, Mche ([7]; with 8 μg/mL clavulanate): two-fold | potentiation of meropenem, Mche ([7]; without clavulanate): did not see any potentiation | activity against Mtb alone [4]: not active | activity against Mtb with sub-MIC50 dose of meropenem [4]: not active | IC50 [1]: 24 to 100 µM | potentiation of kanamycin, Mab [8]: no effect

CCn1c(-c2nonc2N)nc2c(C#CC(C)(C)O)nc(OC[C@H](N)c3ccccc3)cc21 [GSK943949A]
IC50 [1]: 24 to 100 µM
